Reference: US20040003424A1, “Transgenic cardiomyocytes with controlled proliferation and differentiation” (Board of Regents, The University of Texas System, priority 2002, published 2004)
No end group written: not given here.

Experiments:
Type in all cases: cell-based, mouse
NkL-TAg cells = assay: Induction of differentiation of NkL-TAg cells, sarcomeric α-actinin immunocytochemistry; conditions: for sarcomere formation as assessed by α-actinin immunocytochemistry: NkL-TAg cells prior to depletion of TAg; for induction of sarcomere formation: NkL-TAg cells after removal of TAg, in differentiation medium (5% horse serum, insulin, transferrin, selenium)
Procedure: (§1) Cell Culture. Cells were isolated from sub-endocardial tumor-like structures in the hearts of transgenic mice as previously described with some modifications (Paradis et al, 1996). Briefly, dissected tissues were minced and dissociated using an enzyme mix containing 0.2% […] (Worthington) and 0.6 mg/ml of pancreatin (Sigma). Cardiac cells derived from Nk-TAg and NkL-TAg mice were maintained in DMEM/F12 media supplemented with 100 IU/ml penicillin, 100 μg/ml streptomycin, 2 mM Lglutamine, and 10% fetal bovine serum (FBS) on plates coated with […] fibronectin and 0.1% 2 gelatin. Cloning cylinders were used to harvest cell clones. Cell growth curves were generated by plating 1.5×10^5 or 2×10^5 cells (as indicated) in growth medium onto 100 mm plates and counting total cell number every 24 hours for 5 days. Differentiation medium contains DMEM/F12 supplemented with 100 IU/ml penicillin, 100 μg/ml streptomycin, 2 mM L-glutamine, 5% heat inactivated horse serum, […], […] and 6.7 ng/ml sodium selenite.
Histochemical Analysis. Heart tissue was fixed in 10% phosphate-buffered formalin and stained with hematoxylin-eosin. Nk-TAg and NkL-TAg cells were cultured on coverslips and fixed for 10 minutes with either −20° C. methanol or 4% paraformaldehyde for immunohistochemistry. Blocking was performed by incubating fixed cells with 1.5% bovine serum albumin and 10% normal goat serum in PBS for 20 minutes. […] Secondary antibodies conjugated to either FITC or Texas Red (1:200, Vector Labs) were diluted in PBS and incubated for 30 minutes at room temperature. In some cases, nuclei were co-stained with DAPI (10 mg/ml) for 1 minute. Coverslips were mounted with Vectashield (Vector Laboratories) and fluorescence or confocal images were captured using Leica DMRXE or Zeiss 3.95 microscopes, respectively.
Viral Infection. Cells were infected with recombinant adenoviruses (Ad) at a multiplicity of infection (MOI) of 100 for 3 to 12 hrs. The medium was replaced with growth medium, and NkL-TAg cells were cultured for the indicated times before analyses. Recombinant adenoviruses were obtained from the following sources: Ad-Cre recombinase (Ad-Cre) was provided by Dr. Frank Graham (McMaster University) (Anton and Graham, 1995); GATA4 (Ad-GATA4), Nkx2.5 (Ad-Nkx2.5), MEK6 (Ad-MEK6), and GFP (Ad-GFP) were generated using the “Easy-Track” system as described (He et al., 1998); antisense HDAC4 and HDAC5 (Ad-HDAC4 or 5), expressing coding regions of HDAC genes in reverse orientation, were provided by Chun Zhang; MEF2C (Ad-MEF2C) was provided by Rebekka Nicol (HDAC 4/5 and MEF2c viruses were generated using pAC-CMV vector); constitutively active calcineurin (Ad-CnA), IGF-I receptor (Ad-IGFI), constitutively active CaMKI (Ad-CaMKI), β-galactosidase (Ad-LacZ) were generated by Dr. Robert Gerard (UT Southwestern) and were constructed using an in vitro Cre-lox recombination system (Aoki et al., 1999; Ng et al. 1999).

Nk-TAg cells [1] = assay: α-actinin immunohistochemistry and sarcomere assembly in Nk-TAg cells; conditions: for assembly of sarcomeres: hypertrophic agents added (20 nM ET-1, 100 mM [sic] PE, 1 mM [sic] angiotensin II)
Procedure: Histochemical Analysis. Heart tissue was fixed in 10% phosphate-buffered formalin and stained with hematoxylin-eosin. Nk-TAg and NkL-TAg cells were cultured on coverslips and fixed for 10 minutes with either −20° C. methanol or 4% paraformaldehyde for immunohistochemistry. Blocking was performed by incubating fixed cells with 1.5% bovine serum albumin and 10% normal goat serum in PBS for 20 minutes. Primary antibodies were incubated for 30-60 minutes in 1.5% bovine serum albumin in PBS as follows: monoclonal anti-myosin (smooth) (1:100, Sigma), polyclonal antimyosin (skeletal) (1:100, Sigma), monoclonal anti-α-smooth muscle actin (1:100, Sigma), monoclonal anti-skeletal myosin (slow) (1:100, Sigma), polyclonal anti-connexin 43 (1:100, Sigma), monoclonal anti-α-sarcomeric actin clone 5C5 (1:100, Sigma), monoclonal anti-desmin (1:100, Sigma), monoclonal anti-calponin (1:100, Sigma), monoclonal anti-α-actinin (sarcomeric) clone EA-53 (1:200, Sigma), monoclonal anti-SV40 T antigen (1:100, Santa Cruz). Secondary antibodies conjugated to either FITC or Texas Red (1:200, Vector Labs) were diluted in PBS and incubated for 30 minutes at room temperature. In some cases, nuclei were co-stained with DAPI (10 mg/ml) for 1 minute. Coverslips were mounted with Vectashield (Vector Laboratories) and fluorescence or confocal images were captured using Leica DMRXE or Zeiss 3.95 microscopes, respectively.
Drug treatment. Drugs were added into cell culture media as indicated at the following concentrations: 100 mM phenylephrine (PE), 10 mM norepinephrine (NE), 10 ng/ml recombinant human transforming growth factor-β1 (TGFβ1) (R&D Systems), 1 mM dynorphin-β (Peninsula Laboratories), 1 mM trans- or cis-retinoic acid (Sigma), 15 ng/ml bone morphogenetic protein (BMP)-2/4 (Genetics Institute, Cambridge, Mass.), 1 mM angiotensin II (R&D Systems), 20 nM endothelin-1 (ET-1) (R&D Systems), 100 ng/ml insulin-like growth factor I (IGF-I) (Roche), 5-azacytidine (Sigma), and 10 mg/ml mitomycin C (Sigma).

Nk-TAg cells [2] = assay: Proliferation of Nk-TAg cardiac cell lines; conditions: drug added to the growth medium; mitomycin C 10 mg/ml as printed
Procedure: as §1
Drug treatment. […]

| Molecule | sarcomere formation as assessed by α-actinin immunocytochemistry (NkL-TAg cells) | also measured |
| --- | --- | --- |
| Nc1ncn([C@@H]2O[C@H](CO)[C@@H](O)[C@H]2O)c(=O)n1 [5-azacytidine] | no effect | – |
| NC[C@H](O)c1ccc(O)c(O)c1 [NE, norepinephrine] | no effect | induction of sarcomere formation (NkL-TAg cells): further induction of sarcomere formation in some cells |
| CNC[C@H](O)c1cccc(O)c1 [PE, phenylephrine] | no effect | assembly of sarcomeres (Nk-TAg cells [1]): did not further induce the assembly of sarcomeres; induction of sarcomere formation (NkL-TAg cells): further induction of sarcomere formation in some cells |
| Cn1c(=O)c2c(ncn2C)n(C)c1=O [caffeine] | no effect | – |
| CC1=C(/C=C/C(C)=C/C=C/C(C)=C\C(=O)O)C(C)(C)CCC1 [cis-retinoic acid] | no effect | – |
| C[C@H](CCC(=O)O)C[C@H](C)C[C@H](C)C(=O)/C=C(\O)[C@H](C)C[C@H](C)C/C=C/[C@@H](C)[C@@H](O)[C@@H](C)[C@@H](O)C[C@@H]1CC[C@@](C)([C@H]2CC[C@@](C)([C@@H](C)O)O2)O1 [ionomycin] | no effect | – |
| CO[C@@]12[C@H](COC(N)=O)C3=C(C(=O)C(C)=C(N)C3=O)N1C[C@@H]1N[C@@H]12 [mitomycin C] | – | proliferation of the Nk-TAg cells (Nk-TAg cells [2]): abated proliferation; expression of α-actinin (Nk-TAg cells [1]; immunohistochemistry, in the cytoplasm as unassembled Z-lines, mitomycin C 10 mg/ml as printed): enhanced expression of α-actinin |
| [Cl-].[K+] [potassium chloride] | no effect | – |
| CC1=C(/C=C/C(C)=C/C=C/C(C)=C/C(=O)O)C(C)(C)CCC1 [trans-retinoic acid] | no effect | – |
| IGF-I: insulin-like growth factor I (Roche) | no effect | – |
| TGFb1: recombinant human transforming growth factor-β1 (R&D Systems) | no effect | – |
| angiotensin II (DRVYIHPF; Angiotensin-2; UniProt P01019 25-32, looked up) | – | assembly of sarcomeres (Nk-TAg cells [1]): did not further induce the assembly of sarcomeres |
| bFGF: basic fibroblast growth factor | no effect | – |
| dynorphin-β | no effect | – |
| endothelin-1 (CSCSSLMDKECVYFCHLDIIW; ends and bridges not checked; cysteine pairing not given here; UniProt P05305 53-73, looked up) [ET-1] | – | assembly of sarcomeres (Nk-TAg cells [1]): did not further induce the assembly of sarcomeres |
